The source of these data is patent publication US20190359653A1, “SELECTIVE PEPTIDE INHIBITORS OF FRIZZLED” (Genentech, Inc., priority 2016, published 2019).

The test system of assay [1] is intestinal organoid samples. Put plainly: RNA sequencing of intestinal organoids. The format is cell-based, mouse. Particulars: 6 and 24 h. How it is done:
RNA-Seq libraries were prepared using TruSeq RNA Sample Preparation kit (Illumina, CA). The libraries were sequenced on Illumina HiSeq 2500 sequencers to obtain on average 34 million single-end reads (50 bp) per sample. RNAseq reads were first aligned to ribosomal RNA sequences to remove ribosomal reads. The remaining reads were aligned to the mouse reference genome (NCBI Build 38) using GSNAP (version 2013-10-10) (Wu, T. D. & Nacu, S. Fast and SNP-tolerant detection of complex variants and splicing in short reads. Bioinformatics 26, 873-881 (2010)) allowing a maximum of two mismatches per 50 base sequence (parameters: ‘-M 2-n 10-B 2-i 1-N 1-w 200000-E 1-pairmax-rna=200000-clip-overlap’). Transcript annotation was based on the RefSeq database (NCBI Annotation Release 104). To quantify gene expression levels, the number of reads mapped to the exons of each RefSeq gene was calculated. Read counts were scaled by library size, quantile normalized and precision weights calculated using the “voom” R package (Law, C. W., Chen, Y., Shi, W. & Smyth, G. K. voom: precision weights unlock linear model analysis tools for RNA-seq read counts. Genome Biology 15, R29 (2014)). […] In addition, gene expression was obtained in form of normalized Reads Per Kilobase gene model per Million total reads (nRPKM) as described earlier (Srinivasan, K. et al. Untangling the brain's neuroinflammatory and neurodegenerative transcriptional responses. Nat Commun 7, 11295 (2016)). […]
We performed Quantitative Set Analysis for Gene Expression (QuSAGE) (Yaari, G., Bolen, C. R., Thakar, J. & Kleinstein, S. H. Quantitative set analysis for gene expression: a method to quantify gene set differential expression including gene-gene correlations. Nucleic Acids Research 41, e170-e170 (2013)) to identify relevant biological processes associated with Wnt inhibition. […]

The subject of assay [2] is intestinal epithelia of C57BL/6 mice. Put plainly: RT-PCR of intestinal epithelia from treated mice. Format: in vivo, mouse. The conditions noted are these: intraperitoneal, 6 h; FIGS. 20A-20C. The method, then:
RNA from organoid samples was isolated using the RNeasy Micro kit (cat. no. 74004; Qiagen) according to the manufacturer's instructions. Mouse small intestine RNA was collected using the RNeasy Mini Kit (cat. no. 74104; Qiagen). qRT-PCR was performed in 10 μL reactions with 50 ng total RNA using One-step Real-time RT-PCR mastermix (cat. no. 4392938; Life Technologies) according to the manufacturer's instructions. Taqman probes from Life Technologies were used: Actb (Mm01205647_g1); Lgr5 (Mm01251801_m1); Axin2 (Mm00443610_m1); Ascl2 (Mm01268891_g1); Olfm4 (Mm01320260_m1); Muc2 (Mm01276696_m1); ACTB(Hs99999903_m1); ACTB(Mm00607939_s1); GAPDH (Mm99999915_g1); and GAPDH(Hs03929097_g1). RT-PCR reactions were run using a 7900HT Fast Real-Time PCR system (ABI) at the following thermal cycling conditions: Holding step of 30 min at 48° C., followed by a holding step of 10 min at 95° C., and 40 cycles of 10 sec at 95° C. and 1 min at 60° C. Values were normalized to actin transcript levels and then normalized to control as described in the figure legend.
C57BL/6 female mice (8 weeks old) were subjected to intraperitoneal injection once per hour (˜150-200 μL injection volume for five injections) until the indicated peptide dose was reached. […]
The pharmacological effect of dFz7-21 was further investigated in vivo. […] Following treatment, RT-PCR was performed to quantify transcript levels.

Regarding LPSDDLEFWCHVMY [dFz7-21], in assay [1], the “enterocyte markers” value is given as “up-regulation”; the “expression of markers of Lgr5+ ISCs and reserve ISCs” value was “substantial down-regulation”. In addition, in assay [2], the “Lgr5, Ascl2 and Axin2 transcript levels” value was “significantly down regulated”.
On to “LPSDDLEFWSHVMY [Fz7-21S, negative control]”, for which, in assay [1], the “expression of markers of Lgr5+ ISCs and reserve ISCs” value is given as “Little or no change in gene expression”. Also, in assay [2], the “Lgr5, Ascl2 and Axin2 transcript levels” value is listed as “did not affect”.
